Source: US9358191B2, “Deodorant composition” (priority 2002, dated 2016)

Assay: Deodorizing effect on malodor gas, closed circulation system
Settings: 1 mL on absorbent cotton, 2 hours of working
Description: Into a 4 L odorless bag, 4 L of air was included by means of an air pump. Each malodor gas (ammonia, trimethylamine, hydrogen sulfide, or methyl mercaptan) was injected thereinto by an injection syringe to regulate a gas concentration. The bag was set at a test apparatus of closed circulation system fitted with an air pump and the air pump was worked at an air amount of about 1000 mL/minute. One milliliter of the above deodorant composition was supported on an absorbent cotton (0.2 g) and the cotton was set at the discharging side of the air pump. After 2 hours of working, the remaining amount of the malodor gas in the system was measured using a dedicated gas detecting tube (Gastech Corporation) and a deodorization rate was calculated according to the following expression.
As a comparative example, an absorbent cotton impregnated with 1 mL of a 20 mM aqueous solution of gallic acid was set at the discharging side of the air pump, instead of the absorbent cotton on which the above deodorant composition was supported. Then, the test was conducted similarly and the deodorization rate was calculated.
Deodorization rate (%)=100×{1−(A/B)}
In the above expression, A means the measured concentration of the malodor components and B means the concentration of the malodor components measured in the control. The control is the case that an absorbent cotton was impregnated with 1 mL of water instead of 1 mL of the above deodorant composition.

O=C(O)c1cc(O)c(O)c(O)c1 [Gallic acid aqueous solution, gallic acid]
Deodorization rate (Ammonia, initial concentration 60 ppm): 85.0%
Deodorization rate (Hydrogen sulfide, initial concentration 120 ppm): 5.0%
Deodorization rate (Methyl mercaptan, initial concentration 100 ppm): 0%
Deodorization rate (Trimethylamine, initial concentration 130 ppm): 70.0%
